Assay results as given in patent US9428508B2, “2,4-diamino-6,7-dihydro-5H-pyrrolo[2,3]pyrimidine derivatives as FAK/Pyk2 inhibitors” (Centaurus BioPharma Co., Ltd., priority 2011, dated 2016).

Assays:
FAK = FAK (Homo sapiens (Human), UniProt Q05397); experiment: Biochemical assay for FAK activity (LANCE TR-FRET, ULight-poly Glu,Ala,Tyr substrate); conditions: GST-tagged FAK, 120 min reaction
Outline: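 GST-tagged FAK (2.5 nM working stock) with ULight-poly Glu,Ala,Tyr (666 nM stock) and ATP (33.3 μM stock) in Tris pH 7.5/MgCl2/DTT/CHAPS buffer with BSA, 120 min; EDTA-quenched. Phosphorylation read by TR-FRET with Eu-anti-phosphotyrosine (PY20) antibody after 60 min. Compounds tested as 12-point 3-fold dilutions.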

PYK2 = PYK2 (Homo sapiens (Human), UniProt Q14289); experiment: Biochemical assay for PYK2 activity (LANCE TR-FRET, ULight-poly Glu,Ala,Tyr substrate); conditions: GST-tagged PYK2, 40 min reaction
Outline: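 GST-tagged human PYK2 (2 nM working stock) with ULight-poly Glu,Ala,Tyr (1:1:1) peptide (666 nM working stock) and ATP (46.6 μM working stock) in 40 mM Tris pH 7.5, MgCl2, 1 mM DTT, 1 mM CHAPS; 40 min reaction, EDTA quench. Phosphotyrosine read by LANCE Eu-anti-phosphotyrosine (PY20) TR-FRET after 60 min; 12-point 3-fold compound dilutions.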

Sequence of PYK2 (Q14289 whole entry): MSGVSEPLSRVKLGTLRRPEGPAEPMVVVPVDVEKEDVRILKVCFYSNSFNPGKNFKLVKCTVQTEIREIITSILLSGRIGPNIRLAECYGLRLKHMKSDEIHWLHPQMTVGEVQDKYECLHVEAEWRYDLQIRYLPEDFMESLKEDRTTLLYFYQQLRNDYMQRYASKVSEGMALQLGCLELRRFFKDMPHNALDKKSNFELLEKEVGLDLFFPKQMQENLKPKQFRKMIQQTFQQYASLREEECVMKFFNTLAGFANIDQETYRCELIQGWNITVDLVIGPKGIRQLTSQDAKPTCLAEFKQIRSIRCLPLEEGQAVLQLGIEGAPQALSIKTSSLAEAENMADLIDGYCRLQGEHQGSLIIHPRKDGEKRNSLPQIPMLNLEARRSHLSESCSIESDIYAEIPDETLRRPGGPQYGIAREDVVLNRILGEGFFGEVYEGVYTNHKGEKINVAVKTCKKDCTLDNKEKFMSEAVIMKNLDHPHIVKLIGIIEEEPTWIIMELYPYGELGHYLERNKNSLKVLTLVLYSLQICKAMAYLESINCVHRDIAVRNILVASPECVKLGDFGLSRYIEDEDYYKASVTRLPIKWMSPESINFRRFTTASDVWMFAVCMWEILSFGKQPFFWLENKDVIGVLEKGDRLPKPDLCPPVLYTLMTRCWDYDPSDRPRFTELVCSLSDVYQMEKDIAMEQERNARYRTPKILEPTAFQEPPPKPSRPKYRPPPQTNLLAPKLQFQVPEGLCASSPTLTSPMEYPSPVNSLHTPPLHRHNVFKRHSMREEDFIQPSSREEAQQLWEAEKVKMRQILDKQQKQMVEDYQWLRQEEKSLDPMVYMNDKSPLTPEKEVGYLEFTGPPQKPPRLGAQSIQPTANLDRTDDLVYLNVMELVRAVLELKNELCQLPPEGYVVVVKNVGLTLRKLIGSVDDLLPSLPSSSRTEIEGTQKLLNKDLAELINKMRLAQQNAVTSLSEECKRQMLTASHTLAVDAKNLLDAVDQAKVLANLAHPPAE
Sequence of FAK (Q05397 whole entry): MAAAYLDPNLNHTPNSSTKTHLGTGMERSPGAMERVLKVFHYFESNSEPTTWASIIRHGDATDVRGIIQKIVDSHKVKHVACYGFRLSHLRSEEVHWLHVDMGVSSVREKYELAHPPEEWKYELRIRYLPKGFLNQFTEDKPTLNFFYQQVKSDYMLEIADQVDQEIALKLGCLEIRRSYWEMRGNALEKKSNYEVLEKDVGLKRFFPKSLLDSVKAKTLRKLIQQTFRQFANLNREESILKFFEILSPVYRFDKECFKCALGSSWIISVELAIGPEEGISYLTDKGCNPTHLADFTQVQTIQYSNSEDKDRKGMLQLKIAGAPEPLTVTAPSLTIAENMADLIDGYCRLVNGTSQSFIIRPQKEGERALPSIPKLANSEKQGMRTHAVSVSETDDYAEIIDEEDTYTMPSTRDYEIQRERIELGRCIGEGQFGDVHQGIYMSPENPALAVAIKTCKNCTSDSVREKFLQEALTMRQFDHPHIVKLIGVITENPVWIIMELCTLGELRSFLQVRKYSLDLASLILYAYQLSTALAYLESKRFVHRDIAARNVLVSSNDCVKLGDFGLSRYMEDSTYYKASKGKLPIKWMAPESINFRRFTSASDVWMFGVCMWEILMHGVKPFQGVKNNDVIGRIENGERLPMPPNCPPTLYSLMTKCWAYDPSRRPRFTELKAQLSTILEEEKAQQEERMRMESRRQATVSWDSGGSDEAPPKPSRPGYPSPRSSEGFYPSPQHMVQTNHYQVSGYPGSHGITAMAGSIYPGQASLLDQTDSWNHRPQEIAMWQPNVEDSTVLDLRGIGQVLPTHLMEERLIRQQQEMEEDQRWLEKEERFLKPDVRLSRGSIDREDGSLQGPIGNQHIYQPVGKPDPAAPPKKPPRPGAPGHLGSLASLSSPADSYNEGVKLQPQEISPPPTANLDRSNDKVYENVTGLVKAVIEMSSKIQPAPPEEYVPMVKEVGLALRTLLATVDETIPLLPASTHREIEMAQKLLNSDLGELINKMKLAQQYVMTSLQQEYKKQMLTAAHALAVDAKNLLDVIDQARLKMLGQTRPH

IC50 (FAK) | IC50 (PYK2) | Structure (SMILES)
> 1000 nM | < 1000 nM | Cc1csc(Nc2nc3c(c(Nc4ccccc4S(=O)(=O)NC(C)C)n2)CCN3)n1 [Example 91, N-isopropyl-2-(2-(4-methylthiazol-2-ylamino)-6,7-dihydro-5H-pyrrolo[2,3-d]pyrimidin-4-ylamino)benzenesulfonamide]
< 20 nM | < 20 nM | COc1cc(N2CCC(N3CCCCC3)CC2)ccc1Nc1nc2c(c(Nc3ccccc3S(=O)(=O)NC(C)C)n1)CCN2 [Example 92, 2-(2-(4-(1,4′-bipiperidin-1′-yl)-2-methoxyphenylamino)-6,7-dihydro-5H-pyrrolo[2,3-d]pyrimidin-4-ylamino)-N-isopropylbenzenesulfonamide]
< 20 nM | < 20 nM | COc1cc(N2CCC(N3CCCC3)CC2)ccc1Nc1nc2c(c(Nc3ccccc3S(=O)(=O)NC(C)C)n1)CCN2 [Example 93, N-isopropyl-2-(2-(2-methoxy-4-(4-(pyrrolidin-1-yl)piperidin-1-yl)phenylamino)-6,7-dihydro-5H-pyrrolo[2,3-d]pyrimidin-4-ylamino)benzenesulfonamide]
< 50 nM | < 200 nM | COc1cc(-n2cccn2)ccc1Nc1nc2c(c(Nc3ccccc3S(=O)(=O)NC(C)C)n1)CCN2 [Example 94, N-isopropyl-2-(2-(2-methoxy-4-(1H-pyrazol-1-yl)phenylamino)-6,7-dihydro-5H-pyrrolo[2,3-d]pyrimidin-4-ylamino)benzenesulfonamide]
< 20 nM | < 20 nM | COc1cc(N2CCC(N3CCN(C)CC3)CC2)ccc1Nc1nc2c(c(Nc3ccccc3S(=O)(=O)NC(C)C)n1)CCN2 [Example 96, N-isopropyl-2-(2-(2-methoxy-4-(4-(4-methylpiperazin-1-yl)piperidin-1-yl)phenylamino)-6,7-dihydro-5H-pyrrolo[2,3-d]pyrimidin-4-ylamino)benzenesulfonamide]
< 100 nM | < 500 nM | COc1cc(N2CCC(N3CCNCC3)CC2)ccc1Nc1nc2c(c(Nc3ccccc3S(=O)(=O)NC(C)C)n1)CCN2 [Example 97, N-isopropyl-2-(2-(2-methoxy-4-(4-(piperazin-1-yl)piperidin-1-yl)phenylamino)-6,7-dihydro-5H-pyrrolo[2,3-d]pyrimidin-4-ylamino)benzenesulfonamide]
< 20 nM | < 50 nM | COc1cc(N2CCOCC2)ccc1Nc1nc2c(c(Nc3ccccc3S(=O)(=O)C(C)C)n1)CCN2 [Example 100, N^4-(2-(isopropylsulfonyl)phenyl)-N^2-(2-methoxy-4-morpholinophenyl)-6,7-dihydro-5H-pyrrolo[2,3-d]pyrimidine-2,4-diamine]
< 20 nM | < 20 nM | COc1cc(N2CCOCC2)ccc1Nc1nc2c(c(Nc3ccccc3S(=O)(=O)NC(C)C)n1)C(C)CN2 (stereo not shown) [Example 101, N-isopropyl-2-(2-(2-methoxy-4-morpholinophenylamino)-5-methyl-6,7-dihydro-5H-pyrrolo[2,3-d]pyrimidin-4-ylamino)benzenesulfonamide]
< 20 nM | < 50 nM | CNC(=O)c1ccccc1Nc1nc(Nc2ccc(N3CCOCC3)cc2OC)nc2c1[C@@H](C)CN2 [Example 102, (R)-2-(2-(2-methoxy-4-morpholinophenylamino)-5-methyl-6,7-dihydro-5H-pyrrolo[2,3-d]pyrimidin-4-ylamino)-N-methylbenzamide]
< 20 nM | < 20 nM | CNS(=O)(=O)c1ccccc1Nc1nc(Nc2ccc(N3CCOCC3)cc2OC)nc2c1C(C)(C)CN2 [Example 103, 2-(2-(2-methoxy-4-morpholinophenylamino)-5,5-dimethyl-6,7-dihydro-5H-pyrrolo[2,3-d]pyrimidin-4-ylamino)-N-methylbenzenesulfonamide]
< 20 nM | < 20 nM | COc1cc(N2CCOCC2)ccc1Nc1nc2c(c(Nc3ccccc3S(=O)(=O)NC3CCC3)n1)C(C)(C)CN2 [Example 104, N-cyclobutyl-2-(2-(2-methoxy-4-morpholinophenylamino)-5,5-dimethyl-6,7-dihydro-5H-pyrrolo[2,3-d]pyrimidin-4-ylamino)benzenesulfonamide]
